The subject of assay [1] is GSK3β Ser9 phosphorylation. As to the kind of experiment: Immunoblotting of phospho-GSK3β (Ser9) in ADP-stimulated washed platelets. The assay is classed as cell-based, rat. As to conditions: for p-GSK3β / t-GSK3β / p-GSK3β / t-GSK3β (Fold to ADP only): ADP 10 μmol/L, single replicates; for p-GSK3β / t-GSK3β: raw data. How it is done:
For in vitro platelet aggregation, aliquots of washed platelets were preincubated with vehicle or various concentrations of naringenin for 5 min and stimulated with ADP (10 μmol/L) under stirring at 37°C for 5 min. For ex vivo platelet aggregation, PRP was incubated at 37°C for 5 min and stimulated with ADP (5 μmol/L) under stirring at 37 °C. The platelet aggregation was terminated by adding ethylenediaminetetraacetic acid (EDTA; 10 mM). Total protein was prepared using RIPA lysis buffer and protein content was determined by bicinchoninic acid (BCA) protein assay kit. Equal amounts of platelet proteins (30 μg) were separated on 10% SDS polyacrylamide gel electrophoresis (SDS-PAGE) and then transferred to poly vinylidene difluoride (PVDF) membranes and subjected to western blot. Blots were blocked with TBS-Tween 20 containing 5% BSA and probed with primary antibodies diluted in blocking solution at 4°C overnight followed by incubation with the corresponding HRP secondary antibodies. The protein bands were visualized using enhanced chemiluminescence (ECL).
FIGURE 4 Naringenin inhibits PI3K-mediated signaling in ADP-induced platelets. Washed rat platelets were preincubated without or with naringenin at 37°C for 5 min, and then stimulated with ADP (10 μmol/L) under stirring for 5 min. Platelet proteins were then extracted and analyzed by immunoblotting using PI3Kp110β antibody (A) and phospho-specific antibodies such as Akt^Ser473 (B), Akt^Thr308 (C), ERK1/2^Thr202/Tyr204 (D) and GSK3β^Ser9 (E). Total level of GAPDH was measured on each sample as a loading control. The blots shown are representative of three separate experiments. The relative protein expression levels were quantified by ImageJ 1.47v software. The level of relative protein expression obtained with vehicle control (0 μM) was taken as 1. R represents the level of relative protein expression in resting platelets. Data are expressed as means ± SD (n = 3). *p < 0.05, **p < 0.01, ***p < 0.001 compared with the vehicle control group.

Assay [2] concerns PDE extracts prepared from rat PRP (cGMP hydrolysis). As to the kind of experiment: Phosphodiesterase activity in platelet extracts, hydrolysis of cGMP (HPLC). The assay is classed as biochemical. The conditions noted are these: vehicle = 100%, single replicates. On the procedure:
The effects of naringenin on PDE activity were determined using high-performance liquid chromatography (HPLC) ([Hu et al., 2011]). Briefly, PRP was pelleted by centrifugation for 10 min at 900 × g and homogenized in PBS containing 0.1% Triton X-100 using an ultrasonic homogenizer. After centrifugation at 12,000 × g for 20 min at 4°C, the supernatant was subjected to PDE activity assay.
DMSO vehicle or different concentrations naringenin were added to assay buffer (137 mM NaCl, 2.7 mM KCl, 8.8 mM Na2HPO4, 1.5 mM KH2PO4, 1 mM CaCl2, 1 mM MgCl2, pH 7,4) containing cAMP or cGMP. The reaction was initiated by adding 30 μL PDE extracts prepared from rat PRP as described above. Some extracts were boiled for 3 min to inactivate PDE before addition. After incubation for 30 min at […], the reaction was terminated by boiling the mixture for 3 min. Subsequently, the mixture was cooled on ice followed by centrifugation at 12,000 × g for 20 min at 4°C. The supernatant was subjected cAMP or cGMP assay using HPLC. PDE activity was expressed as percentages of the hydrolysis of cAMP or cGMP.

For assay [3], the system named is carotid arterial thrombus. In words: FeCl3-induced carotid arterial thrombus model in rats. The assay is classed as in vivo, rat. The conditions noted are these: for Occlusion time: 10% FeCl3, single animals, no occlusion within 20 min recorded as 20 min. On the procedure:
To determine the effects of naringenin on thrombogenesis, a FeCl3-induced carotid arterial thrombus model was performed as reported previously with some modifications ([Eckly et al., 2011]). […] The rats were anaesthetized using 1% pentobarbital sodium salt and fixed supinely after the last administration. The left carotid artery was exposed and thrombosis was induced by applying a Whatman filter paper (5 mm × 1 mm) saturated with 10% (w/v) FeCl3 on the top of the left carotid artery for 5 min. […] Time to occlusion of the carotid artery was defined as a blood flow of 0 ml/min for 3 min. […] At the end of the experiment, the left carotid artery was dissected. A haematoxylin and eosin stain was performed on the artery.

Values joined by “and” are separate entries in the source; they are usually repeats but may differ in a detail not shown here. Equal values may be shown once.

For `O=C1C[C@@H](c2ccc(O)cc2)Oc2cc(O)cc(O)c21` [Naringenin], the “p-GSK3β / t-GSK3β” value was 0.3609 and 0.3982 and 0.3384 in assay [1] (100 μM); 0.4301 and 0.3431 and 0.4790 in assay [1] (200 μM); 0.3379 and 0.5076 and 0.5137 in assay [1] (400 μM); 0.4062 and 0.4495 and 0.5157 in assay [1] (800 μM). Also, the “p-GSK3β / t-GSK3β (Fold to ADP only)” value in assay [1] (100 μM) was 0.5893 Fold to ADP only and 0.6502 Fold to ADP only and 0.5525 Fold to ADP only; in assay [1] (200 μM), 0.7022 Fold to ADP only and 0.5603 Fold to ADP only and 0.7821 Fold to ADP only; in assay [1] (400 μM) it was 0.5517 Fold to ADP only and 0.8288 Fold to ADP only and 0.8388 Fold to ADP only; in assay [1] (800 μM), 0.6632 Fold to ADP only and 0.7339 Fold to ADP only and 0.8420 Fold to ADP only. The “influence on GSK3β phosphorylation” value in assay [1] (ADP-induced platelets) was “no influence”. The “PDE activity (%)” value in assay [2] (100 μM) was 55.89% and 98.26% and 70.79%; in assay [2] (200 μM), 55.23% and 54.30% and 66.68%; in assay [2] (400 μM), 64.97% and 53.69% and 55.23%; in assay [2] (800 μM), 56.89% and 50.38% and 49.55%. Besides, the “H&E-stained carotid artery: thrombus formation and vascular endothelial injury” value in assay [3] (naringenin pretreatment, 10% FeCl3) was “diminish thrombus formation and protect against vascular endothelial injury”. In addition, the “Occlusion time” value was 7.5 min and 11.3 min and 8.5 min and 8.0 min and 9.5 min and 10.3 min in assay [3] (oral 200 mg/kg for 7 days, 200 mg/kg); 11.0 min and 10.5 min and 13.0 min and 14.0 min and 15.0 min in assay [3] (oral 400 mg/kg for 7 days, 400 mg/kg); 13.3 min and 15.3 min and 20.0 min and 18.0 min in assay [3] (oral 800 mg/kg for 7 days, 800 mg/kg). Also, the “10% FeCl3-thrombus formation (time to vessel occlusion)” value in assay [3] (oral 800 mg/kg for 7 days) is on record as “markedly attenuated”; in assay [3] (oral 200 and 400 mg/kg for 7 days), “less inhibition”.
